Data from patent publication US12006553B2, “Companion diagnostics for mitochondrial inhibitors” (priority 2017, dated 2024).
Each block holds one compound with its values, some of them ahead of it.

Legend:
cancer stem cells (CSCs) = experiment: CSC propagation / 3D spheroid (mammosphere) formation on low-attachment plates; type: cell-based; details: for IC50: CSCs, read-out: IC-50 for inhibition of CSC propagation; for inhibition of CSC propagation / 3D spheroid formation (in words): anchorage-independent growth
Excerpt: Because CSCs are relatively “rare”, little is known about their metabolic properties. […] Under such conditions, the majority (more than 90%) of “bulk” cancer cells die via apoptosis, while only the CSCs survive and propagate, ultimately resulting in the formation of 3D spheroid structures after about 5 days. Each 3D spheroid is clonally formed from a single CSC. For breast CSCs, these 3D spheroids are also known as tumor-spheres or mammospheres. The generation of these 3D spheroids is thought to mimic the process of tumor formation and/or metastasis, thus providing a model for drug discovery and functional validation.

[1] = tested on: DoxyR-CSCs (Doxy-resistant (DoxyR)-MCF7 cells); experiment: Sensitivity of Doxy-resistant CSCs to other metabolic therapies; type: cell-based
Excerpt: One concern with doxycycline therapy is the potential for the development of drug-resistance in CSCs. To investigate this issue, the inventors developed and characterized the phenotypic behavior of Doxy-resistant (DoxyR)-MCF7 cells.

[2] = tested on: HMGR (3-hydroxy-3-methylglutaryl-CoA-reductase); experiment: Inhibition of mevalonate metabolism; details: statin-like

SMILES: [Cl-].c1ccc2c(c1)[I+]c1ccccc1-2 [DPI, diphenyleneiodium chloride]
IC50 (cancer stem cells (CSCs)): ~3 nM
potency for targeting CSCs relative to Palbociclib (cancer stem cells (CSCs); versus Palbociclib): approximately 30 times

SMILES: CNC(=O)c1cc(Oc2ccc(NC(=O)Nc3ccc(Cl)c(C(F)(F)F)c3)cc2)ccn1 [Sorafenib]
sensitivity of DoxyR-CSCs to the drug [1]: sensitive

SMILES: CCc1c2c(nc3ccc(OC(=O)N4CCC(N5CCCCC5)CC4)cc13)-c1cc3c(c(=O)n1C2)COC(=O)[C@]3(O)CC [Irinotecan]
sensitivity of DoxyR-CSCs to the drug [1]: sensitive

IC50 (cancer stem cells (CSCs)): ~100 nM
SMILES: CC(=O)c1c(C)c2cnc(Nc3ccc(N4CCNCC4)cn3)nc2n(C2CCCC2)c1=O [Palbociclib]

inhibition of mevalonate metabolism [2]: inhibit
SMILES: C[C@@H]1O[C@@H](O[C@@H]2[C@@H](Oc3cc(O)c4c(c3)O[C@H](c3ccc(O)cc3)CC4=O)O[C@@H](COC(=O)C[C@@](C)(O)CC(=O)O)[C@H](O)[C@H]2O)[C@@H](O)[C@H](O)[C@H]1O [melitidin]
inhibition of CSC propagation / 3D spheroid formation (in words) (cancer stem cells (CSCs)): inhibit

SMILES: O=C1O[C@H]([C@@H](O)CO)C(O)=C1O [Vitamin C]
sensitivity of DoxyR-CSCs to the drug [1]: sensitive

inhibition of mevalonate metabolism [2]: inhibit
SMILES: COc1ccc([C@@H]2CC(=O)c3c(O)cc(O[C@@H]4O[C@H](COC(=O)CC(C)(O)CC(=O)O)[C@@H](O)[C@H](O)[C@H]4O[C@@H]4O[C@@H](C)[C@H](O)[C@@H](O)[C@H]4O)cc3O2)cc1O (some centres unmarked) [brutieridin]
inhibition of CSC propagation / 3D spheroid formation (in words) (cancer stem cells (CSCs)): inhibit

SMILES: CC(C)(C)C(O)/C=C/c1ccc2c(c1)OCO2 (centres unmarked) [Stiripentol]
sensitivity of DoxyR-CSCs to the drug [1]: sensitive

SMILES: O=C(Nc1ccc([N+](=O)[O-])cc1Cl)c1cc(Cl)ccc1O [Niclosamide]
sensitivity of DoxyR-CSCs to the drug [1]: sensitive

SMILES: CC[C@H]1/C=C/C=C/C[C@@H](C)[C@H](O)[C@@](C)(O)C(=O)[C@@H](C)[C@H](O)[C@@H](C)C(=O)[C@@H](C)[C@H](O)[C@@H](C)/C=C/C(=O)O[C@@H]2[C@H](C)[C@H](CC1)O[C@]1(CC[C@H](C)[C@H](C[C@@H](C)O)O1)[C@H]2C [oligomycin]
inhibition of CSC propagation / 3D spheroid formation (in words) (cancer stem cells (CSCs)): effectively blocked

SMILES: CCN(CC)CCCC(C)Nc1ccnc2cc(Cl)ccc12 (centres unmarked) [Chloroquine]
sensitivity of DoxyR-CSCs to the drug [1]: sensitive
